Patent publication US10626112B2, “Heterocyclic sulfonamide derivative and medicine comprising same” (EA PHARMA CO., LTD., priority 2014, dated 2020)

Biological target: human TRPA1 (Homo sapiens (Human), UniProt O75762)
Assay: Measurement of TRPA1 antagonist activity (1): intracellular calcium increase
Format: cell-based
Details: 293T cells transfected with human TRPA1 expression plasmid; allylisothiocyanate 20 μM stimulation; intracellular calcium fluorescence; read-out: hTRPA1 IC50
Description: Measurement of TRPA1 Antagonist Activity (1)
Human TRPA1 Expression Plasmid
As cDNA encoding human TRPA1 (GenBank accession No. […]), a commercially available product was purchased (manufactured by Kazusa DNA Research Institute, clone No.: pFN21AB7348, item No.: FHC07217). Using this as a template, full-length human TRPA1 gene was amplified using the primer sequences shown below, by reaction using DNA polymerase (manufactured by Stratagene, trade name: PfuUltra High-Fidelity DNA Polymerase).
A recognition site (underlined) of restriction enzyme HindIII was added to the 5′ side, and XbaI site (underlined) was added to the 3′ side, and GTT of the template sequence was changed to termination codon TAG (bold). The obtained double stranded DNA was enzyme-digested with HindIII and XbaI, and introduced into the multicloning site of expression plasmid pcDNA3.1/zeo(+) (manufactured by Invitrogen) to construct a human TRPA1 expression plasmid.
Human embryonic kidney-derived 293T cells were cultured in Dulbecco's Modified Eagle Medium containing 10% fetal bovine serum, 10 unit penicillin, and 10 μg streptomycin, plated on a petri dish having a diameter of 10 cm at 3×10^6 cells, and cultured for 24 hr in a CO2 incubator. A reduced serum medium (manufactured by Invitrogen, trade name: OPTI-MEM, 600 μL), a gene transfer reagent (manufactured by Mirus Bio, trade name: Mirus TransIT-293, 18 μL), and human TRPA1 expression plasmid (6 μg) were mixed, the total amount of the mixture was added to the cells on the petri dish to allow for gene transfer. The cells were recovered about for 8 hr later, plated on a poly-D-lysine coated 384 well black/clear bottom plate at 12,000 cells/well, and cultured overnight.
Measurement of Intracellular Calcium Increase
The 384 well plate was recovered, and the medium was removed. A calcium-bonded fluorescent indicator (manufactured by Molecular Device, trade name: Calcium4 Assay Kit, 38 μL) dissolved in assay buffer (1×HBSS, 20 mM HEPES, pH 7.2) was added, and the cells were stained in a CO2 incubator for 1 hr. The cells were taken out at room temperature, stood for not less than 15 min, a test substance (10 μL) was added by a platereader FDSS7000 (Hamamatsu Photonics K.K.) equipped with a 384ch dispenser. After 10 min, allylisothiocyanate (12 μL) was further added at a final concentration of 20 μM, and changes in the relative fluorescence intensity after addition of allylisothiocyanate were measured for 5 min.
Test Substance Preparation
The test substance was dissolved in dimethyl sulfoxide and serially diluted with an assay buffer containing 0.1% bovine serum albumin (1×HBSS, 20 mM HEPES, pH 7.2) to a 4.8-fold concentration of the evaluation concentration. Allylisothiocyanate, which is a known TRPA1 activator, was dissolved in dimethyl sulfoxide to 100 mM, and further diluted 5-fold (100 μM) of the final concentration, like the test substance.
Calculation of Antagonist Activity
Under the test substance-free conditions, the maximum variation range of the fluorescence intensity before and after allylisothiocyanate stimulation was defined to be 100% activity rate, and the variation range before and after buffer stimulation was defined as 0% activity rate. The activity rate on addition of the test substance was determined, and the numerical value obtained by subtracting the activity rate from 100 was defined to be an inhibitory rate. IC50, which is the concentration of the test substance necessary for reaching the 50% inhibitory rate, was calculated from the sigmoid approximate curve by a spreadsheet software Excel-Fit.

Sequence of human TRPA1 (O75762 whole entry): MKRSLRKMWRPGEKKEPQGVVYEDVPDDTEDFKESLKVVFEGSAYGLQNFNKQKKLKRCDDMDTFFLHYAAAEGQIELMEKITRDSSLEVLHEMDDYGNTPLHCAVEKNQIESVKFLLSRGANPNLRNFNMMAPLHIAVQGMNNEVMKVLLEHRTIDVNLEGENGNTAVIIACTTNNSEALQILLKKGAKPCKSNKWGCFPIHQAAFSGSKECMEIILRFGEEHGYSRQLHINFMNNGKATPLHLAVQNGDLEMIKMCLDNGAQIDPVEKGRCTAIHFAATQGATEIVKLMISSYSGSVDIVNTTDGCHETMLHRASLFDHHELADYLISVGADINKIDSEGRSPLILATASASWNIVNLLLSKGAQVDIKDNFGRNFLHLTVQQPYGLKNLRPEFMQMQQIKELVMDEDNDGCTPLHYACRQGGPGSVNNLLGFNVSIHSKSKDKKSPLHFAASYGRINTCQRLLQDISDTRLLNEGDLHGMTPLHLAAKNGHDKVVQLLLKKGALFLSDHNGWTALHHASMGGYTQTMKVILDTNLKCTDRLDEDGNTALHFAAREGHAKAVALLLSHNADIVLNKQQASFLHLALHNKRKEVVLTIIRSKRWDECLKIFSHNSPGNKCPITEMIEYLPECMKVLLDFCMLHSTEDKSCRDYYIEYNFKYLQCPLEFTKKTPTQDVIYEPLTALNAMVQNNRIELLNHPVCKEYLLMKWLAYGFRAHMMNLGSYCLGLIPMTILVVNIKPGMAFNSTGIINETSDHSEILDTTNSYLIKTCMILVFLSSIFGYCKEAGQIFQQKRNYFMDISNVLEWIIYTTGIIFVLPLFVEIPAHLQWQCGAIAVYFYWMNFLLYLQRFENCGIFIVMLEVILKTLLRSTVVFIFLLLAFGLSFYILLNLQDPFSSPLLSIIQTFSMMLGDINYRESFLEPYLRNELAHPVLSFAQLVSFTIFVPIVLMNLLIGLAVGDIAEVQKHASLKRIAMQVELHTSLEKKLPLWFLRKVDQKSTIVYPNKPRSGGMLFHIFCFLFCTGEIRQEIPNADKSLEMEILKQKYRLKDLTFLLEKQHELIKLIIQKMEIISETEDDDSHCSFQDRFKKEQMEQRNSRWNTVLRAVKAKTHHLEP

SMILES | IC50 [µM]
O=C(NCc1cccc(SCc2ccc(C(F)(F)F)cc2)c1)[C@@H]1CCCN1S(=O)(=O)c1cc2ccccc2o1 [Example 315, (2S)-1-(benzofuran-2-ylsulfonyl)-N-[[3-[[4-(trifluoromethyl)phenyl]methylsulfanyl]phenyl]methyl]pyrrolidine-2-carboxamide] | 0.022
O=C(NCc1ccnc(-c2ccc(F)cc2O)c1)[C@@H]1CCCN1S(=O)(=O)c1cc2cc(F)ccc2o1 [Example 136, (2S)-1-(5-fluorobenzofuran-2-yl)sulfonyl-N-[[2-(4-fluoro-2-hydroxy-phenyl)-4-pyridyl]methyl]pyrrolidine-2-carboxamide] | 0.013
O=C(NCc1cccc(OCc2cncc(Cl)c2)c1)[C@@H]1CCCN1S(=O)(=O)c1cc2ccccc2o1 [Example 10, (2S)-1-(benzofuran-2-ylsulfonyl)-N-[[3-[(5-chloro-3-pyridyl)methoxy]-phenyl]methyl]-pyrrolidine-2-carboxamide] | 0.01
O=C(Nc1cccc(CNC(=O)[C@@H]2CCCN2S(=O)(=O)c2cc3ccccc3o2)c1)c1ccc(C(F)(F)F)cc1 [Example 300, (2S)-1-(benzofuran-2-ylsulfonyl)-N-[[3-[[4-(trifluoromethyl)benzoyl]amino]phenyl]methyl]pyrrolidine-2-carboxamide] | 0.31
O=C(NCc1cncc(-c2ccc(C(F)(F)F)cn2)c1)[C@@H]1CCCN1S(=O)(=O)c1cc2cc(F)ccc2o1 [Example 141, (2S)-1-(5-fluorobenzofuran-2-yl)sulfonyl-N-[[5-[5-(trifluoromethyl)-2-pyridyl]-3-pyridyl]methyl]pyrrolidine-2-carboxamide] | 0.0033
O=C(NCc1cnnc(-c2ccc(C(F)(F)F)cc2)c1)[C@@H]1CCCN1S(=O)(=O)c1cc2ccccc2o1 [Example 208, (2S)-1-(benzofuran-2-ylsulfonyl)-N-[[6-[4-(trifluoromethyl)phenyl]-pyridazin-4-yl]methyl]pyrrolidine-2-carboxamide] | 0.034
O=C(NCc1cccc(-c2cnc(C(F)(F)F)cn2)c1)[C@@H]1CCCN1S(=O)(=O)c1cc2ccccc2o1 [Example 196, (2S)-1-(benzofuran-2-ylsulfonyl)-N-[[3-[5-(trifluoromethyl)pyrazin-2-yl]phenyl]methyl]-pyrrolidine-2-carboxamide] | 0.0029
C[C@H](NS(=O)(=O)c1cc2cc(F)ccc2o1)C(=O)NCc1cc(-c2ncc(C(F)(F)F)cn2)ccn1 [Example 242, (2S)-2-[(5-fluorobenzofuran-2-yl)sulfonylamino]-N-[[4-[5-(trifluoromethyl)pyrimidin-2-yl]-2-pyridyl]methyl]propanamide] | 0.16
O=C(NCc1ccnc(-c2ccc(OC(F)(F)F)cc2)c1)[C@@H]1CCCN1S(=O)(=O)c1cc2ccccc2o1 [Example 116, (2S)-1-(benzofuran-2-ylsulfonyl)-N-[[2-[4-(trifluoromethoxy)phenyl]-4-pyridyl]methyl]pyrrolidine-2-carboxamide] | 0.0029
O=C(NCc1ccc(F)c(-c2ccc(C(F)(F)F)cn2)c1)[C@@H]1CCCN1S(=O)(=O)c1cc2ccccc2o1 [Example 309, (2S)-1-(benzofuran-2-ylsulfonyl)-N-[[4-fluoro-3-[5-(trifluoromethyl)-2-pyridyl]phenyl]methyl]pyrrolidine-2-carboxamide] | 0.01
O=C(NCc1ccc(F)c(OC(F)(F)F)c1)[C@@H]1CCCN1S(=O)(=O)c1cc2cc(F)ccc2o1 [Example 70, (2S)-1-(5-fluorobenzofuran-2-yl)sulfonyl-N-[[4-fluoro-3-(trifluoromethoxy)phenyl]methyl]-pyrrolidine-2-carboxamide] | 0.011
Cc1ccc2oc(S(=O)(=O)N3CCC[C@H]3C(=O)NCc3cccc(-c4ccc(C(F)(F)F)nc4)c3)cc2c1 [Example 111, (2S)-1-(5-methylbenzofuran-2-yl)sulfonyl-N-[[3-[6-(trifluoromethyl)-3-pyridyl]phenyl]methyl]pyrrolidine-2-carboxamide] | 0.13
O=C(NCc1cc(-c2ccc(C(F)(F)F)cc2)ccn1)[C@@H]1CCCN1S(=O)(=O)c1cc2cc(F)ccc2o1 [Example 148, (2S)-1-(5-fluorobenzofuran-2-yl)sulfonyl-N-[[4-[4-(trifluoromethyl)phenyl]-2-pyridyl]methyl]pyrrolidine-2-carboxamide] | 0.0022
CN(C)C(=O)c1ccc(CNC(=O)[C@@H]2CCCN2S(=O)(=O)c2cc3ccccc3o2)cc1-c1ccc(C(F)(F)F)cc1 [Example 337, (2S)-1-(benzofuran-2-ylsulfonyl)-N-[[4-(dimethylcarbamoyl)-3-[4-(trifluoromethyl)phenyl]-phenyl]methyl]pyrrolidine-2-carboxamide] | 0.022
CSc1ccc(-c2cc(CNC(=O)[C@@H]3CCCN3S(=O)(=O)c3cc4ccccc4o3)ccn2)cc1 [Example 278, (2S)-1-(benzofuran-2-ylsulfonyl)-N-[[2-(4-methylsulfanylphenyl)-4-pyridyl]methyl]pyrrolidine-2-carboxamide] | 0.016
O=C(NCc1ccnc(-c2ccccc2O)c1)[C@@H]1CCCN1S(=O)(=O)c1cc2cc(F)ccc2o1 [Example 135, (2S)-1-(5-fluorobenzofuran-2-yl)sulfonyl-N-[[2-(2-hydroxyphenyl)-4-pyridyl]methyl]pyrrolidine-2-carboxamide] | 0.03
O=C(NCc1cc(-c2cnc(C(F)(F)F)nc2)ncn1)[C@@H]1CCCN1S(=O)(=O)c1cc2ccccc2o1 [Example 207, (2S)-1-(benzofuran-2-ylsulfonyl)-N-[[6-[2-(trifluoromethyl)pyrimidin-5-yl]pyrimidin-4-yl]methyl]pyrrolidine-2-carboxamide] | 0.004
O=C(NCc1cccc(OCc2ccc(C(F)(F)F)cc2)c1)[C@@H]1CC=CCN1S(=O)(=O)c1cc2ccccc2o1 [Example 187, (2S)-1-(benzofuran-2-ylsulfonyl)-N-[[3-[[4-(trifluoromethyl)phenyl]methoxy]phenyl]methyl]-3,6-dihydro-2H-pyridine-2-carboxamide] | 0.071
C[C@H](NS(=O)(=O)c1cc2cc(F)ccc2o1)C(=O)NCc1cccc(OCc2ccc(C(F)(F)F)cc2)c1 [Example 49, (2S)-2-[(5-fluorobenzofuran-2-yl)sulfonylamino]-N-[[3-[[4-(trifluoromethyl)phenyl]methoxy]-phenyl]methyl]propanamide] | 0.018
O=C(NCc1cccc(CCc2ccc(C(F)(F)F)cc2)c1)[C@@H]1CCCN1S(=O)(=O)c1cc2ccccc2o1 [Example 318, (2S)-1-(benzofuran-2-ylsulfonyl)-N-[[3-[2-[4-(trifluoromethyl)phenyl]ethyl]phenyl]methyl]pyrrolidine-2-carboxamide] | 0.014
O=C(NCc1ccnc(-c2ccc(C(F)(F)F)cn2)c1)[C@@H]1CCCN1S(=O)(=O)c1cc2cc(F)ccc2o1 [Example 221, (2S)-1-(5-fluorobenzofuran-2-yl)sulfonyl-N-[[2-[5-(trifluoromethyl)-2-pyridyl]-4-pyridyl]methyl]pyrrolidine-2-carboxamide] | 0.0066
O=C(NCc1cncc(-c2ccc(OC(F)(F)F)cc2)c1)[C@@H]1CCCN1S(=O)(=O)c1cc2cc(F)ccc2o1 [Example 279, (2S)-1-(5-fluorobenzofuran-2-yl)sulfonyl-N-[[5-[4-(trifluoromethoxy)phenyl]-3-pyridyl]methyl]pyrrolidine-2-carboxamide] | 0.0028
